What all share (assay): relative viability (nuclei count vs DMSO), 5 days (fraction); higher = more cells survive
Compound in the assay “MK-2206 + Trametinib”: NC1(c2ccc(-c3nc4ccn5c(=O)[nH]nc5c4cc3-c3ccccc3)cc2)CCC1 [MK-2206] + CC(=O)Nc1cccc(-n2c(=O)n(C3CC3)c(=O)c3c(Nc4ccc(I)cc4F)n(C)c(=O)c(C)c32)c1 [Trametinib] (partner 0.02 µM)
In short, it runs like this: (§1)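 Lung cancer cell lines were seeded in 1536-well plates and dosed by pin tool the next day, with either a single drug or a fixed anchor-drug dose combined with five library-drug doses (not always all listed) spaced in √10 steps. Five days later, one step fixed the cells and stained their nuclei (final 0.05% Triton X-100, 1% formaldehyde, 1 ug/ml Hoechst), and nuclei were counted on 4× images. Relative viability is the nuclei count in treated wells divided by the count in vehicle wells, and each value is the median of duplicate plates.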

Compound in the assay “MK-2206 + Luminespib”: NC1(c2ccc(-c3nc4ccn5c(=O)[nH]nc5c4cc3-c3ccccc3)cc2)CCC1 [MK-2206] + CCNC(=O)c1noc(-c2cc(C(C)C)c(O)cc2O)c1-c1ccc(CN2CCOCC2)cc1 [Luminespib] (partner 0.01 µM)
In short, it runs like this: as §1

Compound in the assay “Pictilisib + Olaparib”: CS(=O)(=O)N1CCN(Cc2cc3nc(-c4cccc5[nH]ncc45)nc(N4CCOCC4)c3s2)CC1 [Pictilisib] + O=C(c1cc(Cc2n[nH]c(=O)c3ccccc23)ccc1F)N1CCN(C(=O)C2CC2)CC1 [Olaparib] (partner 8 µM)
In short, it runs like this:
as §1

Compound in the assay “MK-2206 + Linsitinib”: NC1(c2ccc(-c3nc4ccn5c(=O)[nH]nc5c4cc3-c3ccccc3)cc2)CCC1 [MK-2206] + C[C@]1(O)C[C@@H](c2nc(-c3ccc4ccc(-c5ccccc5)nc4c3)c3c(N)nccn32)C1 [Linsitinib] (partner 1 µM)
In short, it runs like this: as §1

Compound in the assay “MK-2206 + Lapatinib”: NC1(c2ccc(-c3nc4ccn5c(=O)[nH]nc5c4cc3-c3ccccc3)cc2)CCC1 [MK-2206] + CS(=O)(=O)CCNCc1ccc(-c2ccc3ncnc(Nc4ccc(OCc5cccc(F)c5)c(Cl)c4)c3c2)o1 [Lapatinib] (partner 2 µM)
The gist of the method:
as §1

For the cell line UMC-11, the relative viability in the assay with MK-2206 + Trametinib (first compound 0.01 µM) is 0.594; with MK-2206 + Trametinib (first compound 0.03162 µM) it was 0.717; in the assay with MK-2206 + Trametinib (first compound 0.3162 µM) it was 0.772; with MK-2206 + Trametinib (first compound 1 µM) it was 0.966; with MK-2206 + Luminespib (first compound 0.01 µM) it was 1; with MK-2206 + Luminespib (first compound 0.03162 µM), 0.944. For the same cell line, the relative viability amounted to 1.12 in the assay with MK-2206 + Luminespib (first compound 0.3162 µM); 1.1 with MK-2206 + Luminespib (first compound 1 µM); 0.822 with Pictilisib + Olaparib (first compound 0.02 µM); 0.344 with Pictilisib + Olaparib (first compound 0.06325 µM); 0.666 with Pictilisib + Olaparib (first compound 0.6325 µM); 0.384 with Pictilisib + Olaparib (first compound 2 µM). The relative viability with MK-2206 + Linsitinib (first compound 0.01 µM) is 1.1; with MK-2206 + Linsitinib (first compound 0.03162 µM) it was 1.02; with MK-2206 + Linsitinib (first compound 0.3162 µM) it was 1.01; with MK-2206 + Linsitinib (first compound 1 µM), 1.01; with MK-2206 + Lapatinib (first compound 0.01 µM) it was 1.27; with MK-2206 + Lapatinib (first compound 0.03162 µM), 1.1. Further, the values for the relative viability with MK-2206 + Lapatinib (first compound 0.3162 µM) and with MK-2206 + Lapatinib (first compound 1 µM) were 0.99 and 0.941, respectively.

(Values after the supplement of paper PMC10307832.)
